In article PMC10734772 (Turkish Journal of Chemistry, 2021):

How the values were obtained:
Type in all cases: cell-based
Jurkat = experiment: MTT assay, Jurkat cells; conditions: Homo sapiens, 24 h, read-out: Viability rate
K562 = experiment: MTT assay, K562 cells; conditions: Homo sapiens, 24 h, MTT, read-out: Viability rate
[1] = test system: K562, Nalm-6, Molt-4, Reh, Jurkat, Hek293T cell lines; experiment: MTT assay, overall judgement over all cell lines; conditions: overall judgement in words; for 6 and 10: on all cell lines, except Reh
Procedure: To evaluate in-vitro anti-cancer activity of the newly synthesized compounds, they were tested by using the MTT assay in the BCR-ABL positive leukemic cell line (K562), BCR-ABL negative leukemic cell lines (Nalm-6, Molt-4, Reh and Jurkat), and non-leukemic human embryonic kidney tissue (Hek293T) cell line. […] The viability rate of each concentration was calculated by the formula stated in material and methods, the viability rate results for each cell were presented in Table S2 and Figure S44.

Molt-4 = experiment: MTT assay, Molt-4 cells; conditions: Homo sapiens, MOLT-4, 24 h, read-out: Viability rate
[2] = MTT assay, Hek293T non-leukemic control cells; conditions: human, read-out: Viability rate
Reh = experiment: MTT assay, Reh cells; conditions: Homo sapiens, 24 h, read-out: Viability rate
Nalm-6 = experiment: MTT assay, Nalm-6 cells; conditions: Homo sapiens, 24 h, MTT, read-out: Viability rate

## Cc1ccc(NC(=O)c2ccc(CN3CCN(c4ncccn4)CC3)cc2)cc1Nc1cnccn1 [Compound 7, N-(4-Methyl-3-(pyrazin-2-ylamino)phenyl)-4-((4-(pyrimidin-2-yl)piperazin-1-yl)methyl)benzamide]
Jurkat; 0.3 μM
  viability at 0.3 µM: 77.4 ± 0.09%
Jurkat; 0.5 μM
  viability at 0.5 µM: 77.3 ± 0.07%
Jurkat; 1 μM
  viability at 1 µM: 75.7 ± 0.03%
Jurkat; 3 μM
  viability at 3 µM: 75.5 ± 0.05%
Jurkat; 5 μM
  viability at 5 µM: 75.6 ± 0.03%
Jurkat; 10 μM
  viability at 10 µM: 74.6 ± 0.06%
Jurkat; 15 μM
  viability at 15 µM: 74.2 ± 0.05%
Jurkat; 20 μM
  viability at 20 µM: 74 ± 0.06%
Jurkat; 30 μM
  viability at 30 µM: 73.2 ± 0.07%
Jurkat; 50 μM
  viability at 50 µM: 72.8 ± 0.03%
Jurkat; 70 μM
  viability at 70 µM: 72.8 ± 0.03%
Jurkat; 100 μM
  viability at 100 µM: 72.7 ± 0.04%
Jurkat; 150 μM
  viability at 150 µM: 72.4 ± 0.09%
Jurkat; 200 μM
  viability at 200 µM: 72.1 ± 0.06%
K562; K562, 0.3 μM
  viability at 0.3 µM: 84.6 ± 0.15%
K562; K562, 0.5 μM
  viability at 0.5 µM: 84.5 ± 0.08%
K562; K562, 1 μM
  viability at 1 µM: 84.4 ± 0.08%
K562; K562, 3 μM
  viability at 3 µM: 84.5 ± 0.1%
K562; K562, 5 μM
  viability at 5 µM: 82.9 ± 0.12%
K562; K562, 10 μM
  viability at 10 µM: 81.6 ± 0.05%
K562; K562, 15 μM
  viability at 15 µM: 80.1 ± 0.06%
K562; K562, 20 μM
  viability at 20 µM: 64 ± 0.07%
K562; K562, 30 μM
  viability at 30 µM: 63.9 ± 0.04%
K562; K562, 50 μM
  viability at 50 µM: 62.9 ± 0.06%
K562; K562, 70 μM
  viability at 70 µM: 62.3 ± 0.07%
K562; K562, 100 μM
  viability at 100 µM: 62.2 ± 0.05%
K562; K562, 150 μM
  viability at 150 µM: 61.6 ± 0.05%
K562; K562, 200 μM
  viability at 200 µM: 59.5 ± 0.07%
[1]
  anticancer activity according to MTT assay results: very poor activity
Molt-4; Molt-4, 0.3 μM
  viability at 0.3 µM: 93.3 ± 0.16%
Molt-4; Molt-4, 0.5 μM
  viability at 0.5 µM: 93.8 ± 0.08%
Molt-4; Molt-4, 1 μM
  viability at 1 µM: 89.8 ± 0.07%
Molt-4; Molt-4, 3 μM
  viability at 3 µM: 89.6 ± 0.12%
Molt-4; Molt-4, 5 μM
  viability at 5 µM: 89.7 ± 0.08%
Molt-4; Molt-4, 10 μM
  viability at 10 µM: 89.5 ± 0.06%
Molt-4; Molt-4, 15 μM
  viability at 15 µM: 90.3 ± 0.04%
Molt-4; Molt-4, 20 μM
  viability at 20 µM: 90.2 ± 0.06%
Molt-4; Molt-4, 30 μM
  viability at 30 µM: 90.9 ± 0.06%
Molt-4; Molt-4, 50 μM
  viability at 50 µM: 92.2 ± 0.05%
Molt-4; Molt-4, 70 μM
  viability at 70 µM: 90.6 ± 0.06%
Molt-4; Molt-4, 100 μM
  viability at 100 µM: 85.5 ± 0.06%
Molt-4; Molt-4, 150 μM
  viability at 150 µM: 90.4 ± 0.04%
Molt-4; Molt-4, 200 μM
  viability at 200 µM: 89.8 ± 0.07%
[2]; Hek293T cells (non-leukemic control cell line), 0.3 μM
  viability at 24 h, 0.3 µM: 87.7 ± 0.06%
[2]; Hek293T cells (non-leukemic control cell line), 0.5 μM
  viability at 24 h, 0.5 µM: 87.6 ± 0.07%
[2]; Hek293T cells (non-leukemic control cell line), 3 μM
  viability at 24 h, 3 µM: 84.6 ± 0.05%
[2]; Hek293T cells (non-leukemic control cell line), 5 μM
  viability at 24 h, 5 µM: 81 ± 0.09%
[2]; Hek293T cells (non-leukemic control cell line), 10 μM
  viability at 24 h, 10 µM: 80.5 ± 0.06%
[2]; Hek293T cells (non-leukemic control cell line), 15 μM
  viability at 24 h, 15 µM: 80.3 ± 0.04%
[2]; Hek293T cells (non-leukemic control cell line), 20 μM
  viability at 24 h, 20 µM: 76 ± 0.03%
[2]; Hek293T cells (non-leukemic control cell line), 30 μM
  viability at 24 h, 30 µM: 72.1 ± 0.02%
[2]; Hek293T cells (non-leukemic control cell line), 50 μM
  viability at 24 h, 50 µM: 64.5 ± 0.02%
[2]; Hek293T cells (non-leukemic control cell line), 70 μM
  viability at 24 h, 70 µM: 64.2 ± 0.02%
[2]; Hek293T cells (non-leukemic control cell line), 100 μM
  viability at 24 h, 100 µM: 63.5 ± 0.07%
[2]; Hek293T cells (non-leukemic control cell line), 150 μM
  viability at 24 h, 150 µM: 60.8 ± 0.03%
[2]; Hek293T cells (non-leukemic control cell line), 200 μM
  viability at 24 h, 200 µM: 55.1 ± 0.02%
[2]; Hek293T cells, 1 μM
  viability at 24 h, 1 µM: 87 ± 0.08%
Reh; 0.3 μM
  viability at 0.3 µM: 110 ± 0.02%
Reh; 0.5 μM
  viability at 0.5 µM: 109.8 ± 0.02%
Reh; 1 μM
  viability at 1 µM: 108.7 ± 0.02%
Reh; 3 μM
  viability at 3 µM: 103.4 ± 0.02%
Reh; 5 μM
  viability at 5 µM: 108.8 ± 0.02%
Reh; 10 μM
  viability at 10 µM: 106.5 ± 0.05%
Reh; 15 μM
  viability at 15 µM: 100.2 ± 0.02%
Reh; 20 μM
  viability at 20 µM: 95.5 ± 0.06%
Reh; 30 μM
  viability at 30 µM: 85.4 ± 0.02%
Reh; 50 μM
  viability at 50 µM: 66.7 ± 0.02%
Reh; 70 μM
  viability at 70 µM: 66.2 ± 0.03%
Reh; 100 μM
  viability at 100 µM: 67.7 ± 0.03%
Reh; 150 μM
  viability at 150 µM: 66.8 ± 0.02%
Reh; 200 μM
  viability at 200 µM: 62.8 ± 0.02%
Nalm-6; Nalm-6, 0.3 μM
  viability at 0.3 µM: 97.9 ± 0.06%
Nalm-6; Nalm-6, 0.5 μM
  viability at 0.5 µM: 95.1 ± 0.03%
Nalm-6; Nalm-6, 1 μM
  viability at 1 µM: 95.1 ± 0.03%
Nalm-6; Nalm-6, 3 μM
  viability at 3 µM: 96 ± 0.03%
Nalm-6; Nalm-6, 5 μM
  viability at 5 µM: 95.6 ± 0.02%
Nalm-6; Nalm-6, 10 μM
  viability at 10 µM: 95.1 ± 0.02%
Nalm-6; Nalm-6, 15 μM
  viability at 15 µM: 95.9 ± 0.03%
Nalm-6; Nalm-6, 20 μM
  viability at 20 µM: 96.4 ± 0.03%
Nalm-6; Nalm-6, 30 μM
  viability at 30 µM: 96.5 ± 0.05%
Nalm-6; Nalm-6, 50 μM
  viability at 50 µM: 72.3 ± 0.02%
Nalm-6; Nalm-6, 70 μM
  viability at 70 µM: 71.8 ± 0.02%
Nalm-6; Nalm-6, 100 μM
  viability at 100 µM: 71.3 ± 0.02%
Nalm-6; Nalm-6, 150 μM
  viability at 150 µM: 70.2 ± 0.01%
Nalm-6; Nalm-6, 200 μM
  viability at 200 µM: 59.7 ± 0.02%
